In the oligonucleotide strings, read from the 5' end, every base follows the letter of its sugar. An asterisk marks phosphorothioate; unmarked linkages are phosphodiester. Other units and linkages are bracketed, terminal groups are in braces. A string of capitals states the bases alone. e = 2'-O-(2-methoxyethyl) (MOE); [5mC] = 5-methylcytosine; d = 2'-deoxy (DNA)
Experiments:
Format in all cases: cell-based
human Factor XI mRNA [1] = test: Dose-dependent antisense inhibition in HepG2 cells, lipofectin (Example 2); settings: approximately 16 hours
Experimental: Cells were plated at a density of 10,000 cells per well and transfected using lipofectin reagent with 9.375 nM, 18.75 nM, 37.5 nM, 75 nM, and 150 nM concentrations of antisense oligonucleotide, as specified in Table 3. After a treatment period of approximately 16 hours, RNA was isolated from the cells and Factor XI mRNA levels were measured by quantitative real-time PCR. Human Factor XI primer probe set RTS 2966 (forward sequence: […], incorporated herein as SEQ ID NO: 3; reverse sequence: […], incorporated herein as SEQ ID NO: 4; probe sequence: TTGTCTACTGAAGCACACCCAAACAGGGAX, wherein X is the fluorophore, incorporated herein as SEQ ID NO: 5) was used to measure mRNA levels. Factor XI mRNA levels were adjusted according to total RNA content, as measured by RIBOGREEN®. Results are presented as percent inhibition of Factor XI, relative to untreated control cells.

human Factor XI mRNA [2] = test: Dose-dependent inhibition in HepG2 cells, lipofectin (Example 4); settings: 16 hours
Outline: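 HepG2 cells at 10,000 per well were lipofectin-transfected with 9.375, 18.75, 37.5 or 75 nM antisense oligonucleotide for about 16 h. Factor XI mRNA was quantified by real-time PCR (primer probe set RTS 2966) and normalised to RIBOGREEN total RNA. Values are percent inhibition versus untreated cells.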

human Factor XI mRNA [3] = test: Dose-dependent inhibition in HepG2 cells, electroporation (Example 4); settings: 16 hours
Outline: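 HepG2 cells electroporated with 0.7, 2.2, 6.7 or 20 μM antisense gapmer and harvested after ~16 h. Factor XI mRNA quantified by qRT-PCR (primer probe set RTS 2966), normalised to total RNA (RIBOGREEN). Reported as percent inhibition versus untreated control cells.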

human Factor XI mRNA [4] = test: Antisense inhibition in HepG2 cells by microwalk gapmers, 8,000 nM, electroporation (Example 14); settings: HepG2 cells, 8,000 nM
Experimental: These microwalk gapmers were tested in vitro. Cultured HepG2 cells at a density of 20,000 cells per well were transfected using electroporation with 8,000 nM antisense oligonucleotide. After a treatment period of approximately 24 hours, RNA was isolated from the cells and Factor XI mRNA levels were measured by quantitative real-time PCR. Factor XI mRNA levels were adjusted according to total RNA content, as measured by RIBOGREEN. Results are presented as percent inhibition of Factor XI, relative to untreated control cells.
The chimeric antisense oligonucleotides in Table 51 were designed as 5-10-5 MOE, 5-8-5 and 6-8-6 MOE gapmers. The first two listed gapmers in Table 51 are the original gapmers (ISIS 416850 and ISIS 416858) from which ISIS 445493-445543 were designed via microwalk, and are designated by an asterisk. The 5-10-5 gapmers are 20 nucleotides in length, wherein the central gap segment is comprised of ten 2′-deoxynucleotides and is flanked on both sides (in the 5′ and 3′ directions) by wings comprising five nucleotides each. The 5-8-5 gapmers are 18 nucleotides in length, wherein the central gap segment is comprised of eight 2′-deoxynucleotides and is flanked on both sides (in the 5′ and 3′ directions) by wings comprising five nucleotides each. The 6-8-6 gapmers are 20 nucleotides in length, wherein the central gap segment is comprised of eight 2′-deoxynucleotides and is flanked on both sides (in the 5′ and 3′ directions) by wings comprising six nucleotides each. For each of the motifs (5-10-5, 5-8-5 and 6-8-6), each nucleotide in the 5′ wing segment and each nucleotide in the 3′ wing segment has a 2′-MOE modification. The internucleoside linkages throughout each gapmer are phosphorothioate (P═S) linkages. All cytidine residues throughout each gapmer are 5-methylcytidines. “Human Target start site” indicates the 5′-most nucleotide to which the gapmer is targeted in the human sequence. “Human Target stop site” indicates the 3′-most nucleotide to which the gapmer is targeted in the human sequence. Each gapmer listed in Table 51 is targeted to SEQ ID NO: 1 (GENBANK Accession No. NM_000128.3). Each gapmer is Table 51 is also fully cross-reactive with the rhesus monkey Factor XI gene sequence, designated herein as SEQ ID NO: 274 (exons 1-15 GENBANK Accession No. NW—001118167.1). ‘Rhesus monkey start site’ indicates the 5′-most nucleotide to which the gapmer is targeted in the rhesus monkey sequence. ‘Rhesus monkey stop site’ indicates the 3′-most nucleotide to which the gapmer is targeted to the rhesus monkey sequence.

human Factor XI mRNA [5] = test: Antisense inhibition in HepG2 cells by microwalk gapmers, 75 nM, lipofectin (Example 3); settings: HepG2 cells, 75 nM, oligonucleotides targeted to nucleobases 1275 to 1318 of SEQ ID NO: 1
Outline: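 HepG2 cells (10,000 per well) were transfected with 75 nM gapmer using lipofectin and treated for about 24 h. Factor XI mRNA was quantified by real-time PCR, normalized to RiboGreen total RNA and expressed as percent inhibition versus untreated controls.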

human Factor XI mRNA [6] = test: Dose-dependent inhibition and IC50 in HepG2 cells, electroporation (Example 15)
Experimental: Cells were plated at a density of 20,000 cells per well and transfected using electroporation with 123.46 nM, 370.37 nM, 1,111.11 nM, 3,333.33 nM and 10,000 nM concentrations of antisense oligonucleotide, as specified in Table 52. After a treatment period of approximately 16 hours, RNA was isolated from the cells and Factor XI mRNA levels were measured by quantitative real-time PCR. Human Factor XI primer probe set RTS 2966 was used to measure mRNA levels. Factor XI mRNA levels were adjusted according to total RNA content, as measured by RIBOGREEN. Results are presented as percent inhibition of Factor XI, relative to untreated control cells.

Substance	percent inhibition of Factor XI (human Factor XI mRNA [1]; 9.375 nM) [%]	percent inhibition of Factor XI (human Factor XI mRNA [1]; 18.75 nM) [%]	percent inhibition of Factor XI (human Factor XI mRNA [1]; 37.5 nM) [%]	percent inhibition of Factor XI (human Factor XI mRNA [1]; 75 nM) [%]	percent inhibition of Factor XI (human Factor XI mRNA [1]; 150 nM) [%]	Percent inhibition of human Factor XI mRNA levels (human Factor XI mRNA [4]) [%]	percent inhibition of Factor XI mRNA (human Factor XI mRNA [6]; electroporation, 123.47 nM) [%]	percent inhibition of Factor XI mRNA (human Factor XI mRNA [6]; electroporation, 370.37 nM) [%]	percent inhibition of Factor XI mRNA (human Factor XI mRNA [6]; electroporation, 1,111.11 nM) [%]	percent inhibition of Factor XI mRNA (human Factor XI mRNA [6]; electroporation, 3,333.33 nM) [%]	percent inhibition of Factor XI mRNA (human Factor XI mRNA [6]; electroporation, 10,000.0 nM) [%]	other results
412203 (antisense eA*eA*eT*eG*eT*d[5mC]*dT*dT*dT*dG*dT*dT*dG*d[5mC]*dA*eA*eG*e[5mC]*eG*e[5mC]) [compound 412203]	29	15	61	77	82							percent inhibition of Factor XI mRNA, relative to untreated control cells (human Factor XI mRNA [2]; 9.375 nM): 33%; percent inhibition of Factor XI mRNA, relative to untreated control cells (human Factor XI mRNA [2]; 18.75 nM): 40%; percent inhibition of Factor XI mRNA, relative to untreated control cells (human Factor XI mRNA [2]; 37.5 nM): 62%; percent inhibition of Factor XI mRNA, relative to untreated control cells (human Factor XI mRNA [2]; 75 nM): 74%; percent inhibition of Factor XI mRNA, relative to untreated control cells (human Factor XI mRNA [3]; 0.7 μM): 11%; percent inhibition of Factor XI mRNA, relative to untreated control cells (human Factor XI mRNA [3]; 2.2 μM): 60%; percent inhibition of Factor XI mRNA, relative to untreated control cells (human Factor XI mRNA [3]; 6.7 μM): 70%; percent inhibition of Factor XI mRNA, relative to untreated control cells (human Factor XI mRNA [3]; 20 μM): 91%
413467 (antisense eG*eG*eT*e[5mC]*e[5mC]*dA*d[5mC]*dA*dT*dA*dA*dA*dT*dG*dT*e[5mC]*eT*eT*eT*eG) [compound 413467]	2	35	49	61	47							percent inhibition of Factor XI mRNA, relative to untreated control cells (human Factor XI mRNA [2]; 9.375 nM): 35%; percent inhibition of Factor XI mRNA, relative to untreated control cells (human Factor XI mRNA [2]; 18.75 nM): 51%; percent inhibition of Factor XI mRNA, relative to untreated control cells (human Factor XI mRNA [2]; 37.5 nM): 62%; percent inhibition of Factor XI mRNA, relative to untreated control cells (human Factor XI mRNA [2]; 75 nM): 69%; percent inhibition of Factor XI mRNA, relative to untreated control cells (human Factor XI mRNA [3]; 0.7 μM): 5%; percent inhibition of Factor XI mRNA, relative to untreated control cells (human Factor XI mRNA [3]; 2.2 μM): 31%; percent inhibition of Factor XI mRNA, relative to untreated control cells (human Factor XI mRNA [3]; 6.7 μM): 65%; percent inhibition of Factor XI mRNA, relative to untreated control cells (human Factor XI mRNA [3]; 20 μM): 89%
413468 (antisense eG*eT*e[5mC]*eT*eA*dG*dG*dT*d[5mC]*d[5mC]*dA*d[5mC]*dA*dT*dA*eA*eA*eT*eG*eT) [compound 413468]	14	34	56	78	75							
413469 (antisense eT*eG*e[5mC]*e[5mC]*e[5mC]*dT*dT*d[5mC]*dA*dT*dG*dT*d[5mC]*dT*dA*eG*eG*eT*e[5mC]*e[5mC]) [compound 413469]	24	33	53	70	84							
416849 (antisense eG*e[5mC]*eA*e[5mC]*eA*dG*dT*dT*dT*d[5mC]*dT*dG*dG*d[5mC]*dA*eG*eG*e[5mC]*e[5mC]*eT) [compound 416849]						88	5	5	26	57	68	% inhibition of human Factor XI mRNA levels (human Factor XI mRNA [5]): 88%
416857 (antisense e[5mC]*eG*eG*e[5mC]*eA*dT*dT*dG*dG*dT*dG*d[5mC]*dA*d[5mC]*dA*eG*eT*eT*eT*e[5mC]) [compound 416857]						91	2	20	35	62	72	% inhibition of human Factor XI mRNA levels (human Factor XI mRNA [5]): 92%
416865 (antisense eT*eG*eG*e[5mC]*eA*dG*d[5mC]*dG*dG*dA*d[5mC]*dG*dG*d[5mC]*dA*eT*eT*eG*eG*eT) [compound 416865]						86						% inhibition of human Factor XI mRNA levels (human Factor XI mRNA [5]): 88%
445498 (antisense GGTGCACAGTTTCTGGCAGG; 6-8-6 gapmer chemistry, chemistry not fully specified) [compound 445498]						83	3	1	27	50	58	
445503 (antisense GCATTGGTGCACAGTTTCTG; 6-8-6 gapmer chemical modifications, chemistry not fully specified) [compound 445503]						89	0	0	22	36	60	IC50 (human Factor XI mRNA [6]; electroporation): 5.9 µM
445504 (antisense eG*eG*e[5mC]*eA*eT*eT*dG*dG*dT*dG*d[5mC]*dA*d[5mC]*dA*eG*eT*eT*eT*e[5mC]*eT) [compound 445504]						87	8	20	38	53	68	
445505 (antisense e[5mC]*eG*eG*e[5mC]*eA*eT*dT*dG*dG*dT*dG*d[5mC]*dA*d[5mC]*eA*eG*eT*eT*eT*e[5mC]) [compound 445505]						89	12	30	39	59	77	
445532 (antisense e[5mC]*eG*eG*e[5mC]*eA*dT*dT*dG*dG*dT*dG*d[5mC]*dA*e[5mC]*eA*eG*eT*eT) [compound 445532]						89	5	12	39	60	70	

Source: patent US20120083522A1, “MODULATION OF INFLAMMATORY RESPONSES BY FACTOR XI” (Isis Pharmaceuitcals, inc., priority 2009, published 2012)
